In publication PMC10113987, “A tool for nuclear imaging of the SARS-CoV-2 entry receptor: molecular model and preclinical development of ACE2-selective radiopeptides” (EJNMMI Research, 2023):
Positions of bridges follow the written chain, without caps; N, C: chain ends. Residues, ends and D or L forms follow the SMILES beside them. *: point of attachment. DOTA = O=C(O)CN1CCN(CC(=O)O)CCN(CC(=O)*)CCN(CC(=O)O)CC1; NODAGA = O=C(O)CN1CCN(CC(=O)O)CCN(C(CCC(=O)*)C(=O)O)CC1; Ahx = NCCCCCC(=O)O

Assays:
[1] = test system: HEK-ACE2 cells; experiment: Cell uptake and internalization in HEK-ACE2 cells; type: cell-based, human
Description: HEK-293 cells transfected with ACE2 or ACE, referred to as HEK-ACE2 and HEK-ACE, respectively, were obtained from Innoprot (Innovative Technologies in Biological Systems S.L. Bizkaia, Spain). The cells were cultured in Dulbecco’s Modified Eagle Medium (DMEM) supplemented with nonessential amino acids, fetal calf serum and antibiotics. Hygromycin B was used to maintain the expression of ACE2 and ACE, respectively. The HEK cells were cultured under standard conditions at 37 °C and 5% CO2 and subcultured using PBS/EDTA and trypsin.
The uptake and internalization of [^67Ga]Ga-DOTA-DX600, [^67Ga]Ga-NODAGA-DX600, [^67Ga]Ga-HBED-CC-DX600 and [^67Ga]Ga-DOTA-BPP9a were determined using HEK-ACE2 and HEK-ACE cells. The cells were seeded in poly-D-lysine-coated 12-well plates allowing cell adhesion and growth overnight. After rinsing the cells with PBS, they were incubated with the respective radiopeptide (25 µL, 1.9 pmol, 38 kBq). In some cell samples, the radiopeptides were co-incubated with excess of cyclo-DX600 (2 µM) or lisinopril (4 µM) to block ACE2 or ACE, respectively. After incubation of the cells for 1 h or 3 h, they were rinsed with PBS or acidic stripping buffer (glycine buffer with NaCl 0.9%, pH 2.8) to determine the total uptake and internalization of the radiopeptides, respectively. Cell samples were lysed using NaOH (1 M, 1 mL) before counting the activity in a γ-counter. The results were expressed as a percentage of total added activity and normalized to an average content of ~ 0.3 mg protein per well.
Methods: The methods for cell uptake studies are reported in the main article. The cyclo-DX600 (ACE2 inhibitor) and lisinopril (ACE inhibitor) were applied at a final concentration of 2 µM and 4 µM, respectively.

[2] = Blood plasma protein binding, mouse plasma (ultrafiltration); type: in vitro ADME; conditions: mouse, plasma, 30 min, 37 °C, read-out: Fraction bound to blood plasma proteins (converted)
Description: (§1) The radiopeptides (0.3 MBq; 15 pmol) were incubated in human or murine blood plasma (150 μL) for 30 min at 37 °C followed by cooling on ice, addition of ice-cold PBS (150 μL) and transfer of the samples to amicon filter devices (Amicon Ultra, 0.5 mL, Merck Millipore; cutoff 10 kDa). The filter ensured the retention of the radiopeptides bound to mouse plasma proteins or human plasma proteins during filtration (14,000 rcf, 30 min at 4 °C). Afterward, the filter inserts were inverted and centrifuged again (200 rcf, 3 min) to recover the protein-bound fraction of the radiopeptides. The activities of the free radiopeptides in the filtrate, as well as in the filter insert and the plasma protein-bound radiopeptides (Abound), were counted for activity separately in a γ-counter. The total activity (Atotal) was determined as the sum of the activities in the filtrate, filter insert, and protein-bound fractions. The percentage of radiopeptide bound to mouse serum albumin (MSA) and human serum albumin (HSA) was calculated as Abound/Atotal*100. The results were presented as average ± SD of three independent experiments (Additional file 1).
(§2) Methods: The detailed methods are reported in the main article. Control experiments were performed by incubation of the respective radiopeptides in phosphate-buffered saline (PBS) instead of blood plasma, followed by ultracentrifugation using Amicon filters.

[3] = test system: mouse blood plasma proteins; experiment: as above; type: in vitro ADME; conditions: 30 min, 37 °C
Description: as §1, §2

[4] = test system: human blood plasma proteins; experiment: Blood plasma protein binding, human plasma (ultrafiltration); type: in vitro ADME; conditions: 30 min, 37 °C
Description: as §1, §2

[5] = as above; type: in vitro ADME; conditions: human, plasma, 30 min, 37 °C, read-out: Fraction bound to blood plasma proteins
Description: as §1, §2

| Structure (SMILES) | Internalized fraction in HEK-ACE2 cells ([1]; 3 h incubation, acidic stripping buffer) [%] | Uptake in HEK-ACE2 cells ([1]; 3 h incubation, percentage of total added activity) [%] | Uptake in HEK-ACE2 cells in the presence of excess cyclo-DX600 (unspecifically bound) ([1]; co-incubation with cyclo-DX600 2 µM) [%] | fraction unbound [2] | Fraction bound to blood plasma proteins [3] | Fraction bound to blood plasma proteins [4] | fraction unbound [5] |
| --- | --- | --- | --- | --- | --- | --- | --- |
| CC(=O)N[C@@H](CCCCNC(=O)CCC(C(=O)O)N1CCN(CC(=O)O)CCN(CC(=O)O)CC1)C(=O)NCC(=O)N[C@@H](CC(=O)O)C(=O)N[C@@H](Cc1ccc(O)cc1)C(=O)N[C@@H](CO)C(=O)N[C@@H](Cc1c[nH]cn1)C(=O)N[C@H]1CSSC[C@@H](C(=O)N[C@H](C(=O)N[C@@H](Cc2ccc(O)cc2)C(=O)N2CCC[C@H]2C(=O)N[C@@H](CC(=O)O)C(=O)N2CCC[C@H]2C(=O)N[C@@H](CCC(=O)O)C(=O)NCC(=O)NCC(=O)NCC(N)=O)[C@@H](C)O)NC(=O)[C@H](CCCCN)NC(=O)[C@H](Cc2c[nH]c3ccccc23)NC(=O)[C@H](Cc2c[nH]c3ccccc23)NC(=O)[C@@H]2CCCN2C(=O)[C@H](Cc2ccc(O)cc2)NC(=O)[C@H](Cc2ccc(O)cc2)NC(=O)[C@H](CCCNC(=N)N)NC(=O)[C@H](CC(C)C)NC(=O)[C@@H]2CCCN2C(=O)[C@H](CO)NC1=O (stereo partly shown) [[^67Ga]Ga-NODAGA-DX600, metal not drawn] (Ac-K(NODAGA)GDYSHCSPLRYYPWWKCTYPDPEGGG-NH2; disulfide 7-18) | 8.2 ± 0.3 | 40 ± 3 | 3.1 ± 1.1 |  |  |  |  |
| CC[C@H](C)[C@H](NC(=O)[C@H](CCC(N)=O)NC(=O)[C@@H]1CCCN1C(=O)[C@H](CCCNC(=N)N)NC(=O)[C@@H]1CCCN1C(=O)[C@H](Cc1c[nH]c2ccccc12)NC(=O)[C@H](CCC(=O)O)NC(=O)CCCCCNC(=O)CCCCCNC(=O)CN1CCN(CC(=O)O)CCN(CC(=O)O)CCN(CC(=O)O)CC1)C(=O)N1CCC[C@H]1C(=O)N1CCC[C@H]1C(=O)O [[^67Ga]Ga-DOTA-BPP9a, metal not drawn] ({DOTA-Ahx-Ahx}-EWPRPQIPP-OH) |  |  |  | 0.47 | ~ 53% | ~ 49% | 0.5 |
